Reference: patent US6730666B1, “Pharmaceutical compositions comprising porphyrins and some novel porphyrin derivatives” (Yeda Research and Development Co. Ltd., priority 1998, dated 2004)
Where two headings read alike, the source gives them in different places.

Columns and labels:
[1] = target: T1, FGFR-1 alkaline phosphatase fusion protein (FRAP) (Mus musculus, UniProt P16092); experiment: Binding of soluble FGFR-1 alkaline phosphatase fusion protein (FRAP) to bFGF immobilized on heparin (Screen AP assay)
T1 construct: soluble FGFR-1 ectodomain alkaline phosphatase fusion protein (FRAP); made in house; host or cells: NIH 3T3 cells (conditioned medium)
T1 sequence (P16092 22-376 limits assumed): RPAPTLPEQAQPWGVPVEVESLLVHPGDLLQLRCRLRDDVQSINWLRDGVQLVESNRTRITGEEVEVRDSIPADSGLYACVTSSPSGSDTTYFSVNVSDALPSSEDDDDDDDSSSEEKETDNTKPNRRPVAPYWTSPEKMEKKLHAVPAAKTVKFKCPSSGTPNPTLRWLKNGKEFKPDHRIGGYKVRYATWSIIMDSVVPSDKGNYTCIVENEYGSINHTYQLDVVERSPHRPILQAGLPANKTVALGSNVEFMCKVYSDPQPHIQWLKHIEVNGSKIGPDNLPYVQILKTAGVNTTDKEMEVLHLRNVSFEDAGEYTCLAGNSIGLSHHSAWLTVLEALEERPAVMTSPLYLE
Procedure: (ii) Binding of soluble FGFR-1 alkaline phosphatase fusion protein (FRAP) to immobilized bFGF. […] The end-point of the assay measured enzymatically the formation of FGF-receptor complexes quantitated by the specifically associated alkaline phosphatase (AP) catalyzed chromogenic product.
Subsequently, 200 μl of FRAP condition medium and porphyrin/corrole compound were added and incubated together for 2 h.
In order to identify inhibitors of FGF-FGFR interactions, an assay for testing FGFR-ligand binding was developed. The system is composed of bFGF bound to a heparin matrix to which soluble FGFR-1 ectodomain alkaline phosphatase fusion protein (FRAP) and the screened compounds are added (see Methods, section (ii)).

[2] = system: NIH 3T3 cells expressing signal peptide bFGF; experiment: Tumor formation induced by signal peptide bFGF expressing NIH 3T3 cells in nude mice; format: in vivo, Balb/C nude mice; conditions: free P1, 25 μg/g of body mass IP twice a week, after 4 weeks
Procedure: (v) Inhibition by porphyrins of tumor formation induced by signal peptide bFGF expressing cells NIH 3T3 cells expressing signal peptide bFGF were injected subcutaneously to Balb/C nude mice as described (Yayon and Klagsbrun, 1990). Porphyrin/corrole compound at 25 μg/g of body mass was injected IP (intraperitoneally) twice a week and after 4 weeks the tumor size was measured.
After establishing the ability of P1 to inhibit FGF biological activity in vitro, the capacity of P1 to inhibit bFGF-induced tumor growth and metastasis was evaluated in vivo. First, the inhibition of tumor growth induced by signal peptide bFGF in a nude mice model was measured (Methods, section (v)). Upon addition of a signal peptide residue to bFGF, the protein is capable of transforming NIH 3T3 cells which, when injected to nude mice, grow and form a tumor Rayon & Klagsbrun, 1990). NIH 3T3 cells expressing signal peptide bFGF were injected subcutaneously to Balb/C nude mice, and P1 either free or liposome incorporated (as described by Jori and Reddi, 1993) (25 μg/g of body mass) were given twice a week by intraperitoneal injection.

[3] = system: Lewis lung carcinoma (LLC) D122 cells; experiment: Lewis lung carcinoma primary tumor growth (foot pad); format: in vivo, C57 black mice; conditions: 25 μg/g of body mass IP twice a week
Procedure: (vii) Lewis lung carcinoma tumor assay. Murine Lewis lung carcinoma (LLC) D122 cells (1×10^6 cells/[…] PBS) were injected into the foot pads of 10-week old C57 black mice (O'Reilly et al, 1994). Twenty five μg/g of body mass of porphyrin or corrole compound dissolved in PBS were injected IP twice a week to the treated group, and tumor size was measured periodically in order to follow primary tumor formation. In order to evaluate inhibition of lung metastasis by porphyrin or corrole compound, the primary tumors were allowed to develop over a period of six weeks to a volume of approximately 8 mm^3; after which the tumors were removed and metastases were allowed to develop for four weeks. During this time the treated group received 25 μg/g of body mass of porphyrin or corrole compound IP twice a week. Subsequently the mice were sacrificed, dissected and the lungs removed and photographed. The extent of lung metastasis was measured by weighing the lungs.
Inhibition of primary tumor growth was tested using the well-established LLC murine tumor growth and metastasis model (Methods, section (vii)). LLC D122 cells (200,000 cells per mouse) were injected into the foot pads of 10-week old C57 black mice. […] The inhibition of the foot pad primary carcinoma tumor growth was statistically established and reproducible in five experiments.

FGFR-3 = target: T2, FGFR-3 (Homo sapiens, UniProt P22607); experiment: Binding of 125I-FGF9 to immobilized soluble FGFR-3 (FR-3-AP); conditions: FIG. 11
T2 construct: soluble FGFR-3 ectodomain alkaline phosphatase fusion protein (FR-3-AP); made in house; host or cells: NIH 3T3 cells (conditioned medium)
T2 sequence (P22607 23-375 limits assumed): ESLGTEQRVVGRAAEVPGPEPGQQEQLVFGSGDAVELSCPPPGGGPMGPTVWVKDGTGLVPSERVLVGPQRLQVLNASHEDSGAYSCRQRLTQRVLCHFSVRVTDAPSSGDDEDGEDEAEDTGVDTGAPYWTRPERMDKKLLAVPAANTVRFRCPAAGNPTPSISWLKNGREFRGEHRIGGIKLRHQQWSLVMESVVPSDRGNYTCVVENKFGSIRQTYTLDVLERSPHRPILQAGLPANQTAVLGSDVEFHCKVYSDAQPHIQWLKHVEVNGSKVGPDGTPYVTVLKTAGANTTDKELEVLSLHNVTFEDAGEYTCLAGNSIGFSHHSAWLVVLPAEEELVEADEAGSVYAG
Procedure: Incubations were performed in the presence of 100 ng/ml heparin and increasing concentrations of porphyrins. […] Results represent the mean value in one of at least two independent experiments.
(iii) Binding of ^125I-bFGF or ^125I-FGF9 to s luble FGFR-1 or FGFR-3. Conditioned medium from NIH 3T3 cells secreting soluble FRAP or FGFR-3 FR-3-AP, was incubated for 45 min at room temperature with rabbit anti-human placental AP antibodies (generated as described in Ornitz et al, 1991) prebound to agarose-protein A beads Pierce). The FGFR-1 or FGFR-3-coupled beads were washed three times with 1 ml HNTG and incubated with 2 ng/ml of ^125I-FGF, 1 μg/ml of heparin and porphyrin/corrole compound at different concentrations for 1 h at room temperature. High affinity-bound ^125I-bFGF was determined by counting of the samples in a γ-counter.
Thus, the compounds were tested for their capacity to inhibit binding of a soluble FGFR-3 ectodomain alkaline phosphatase fusion protein (FR-3-AP) to FGF-9, utilizing a cell free system, similar to the one described for FGFR-1 in Example 1 above, and measuring the binding of radiolabeled ^125I-FGF-9 to soluble FGFR-3.

FGF receptor = FGF receptor (Mus musculus, UniProt P16092); experiment: In vitro inhibition of bFGF binding (assay format not stated); conditions: inhibition of bFGF binding
Sequence of FGF receptor (P16092 22-822): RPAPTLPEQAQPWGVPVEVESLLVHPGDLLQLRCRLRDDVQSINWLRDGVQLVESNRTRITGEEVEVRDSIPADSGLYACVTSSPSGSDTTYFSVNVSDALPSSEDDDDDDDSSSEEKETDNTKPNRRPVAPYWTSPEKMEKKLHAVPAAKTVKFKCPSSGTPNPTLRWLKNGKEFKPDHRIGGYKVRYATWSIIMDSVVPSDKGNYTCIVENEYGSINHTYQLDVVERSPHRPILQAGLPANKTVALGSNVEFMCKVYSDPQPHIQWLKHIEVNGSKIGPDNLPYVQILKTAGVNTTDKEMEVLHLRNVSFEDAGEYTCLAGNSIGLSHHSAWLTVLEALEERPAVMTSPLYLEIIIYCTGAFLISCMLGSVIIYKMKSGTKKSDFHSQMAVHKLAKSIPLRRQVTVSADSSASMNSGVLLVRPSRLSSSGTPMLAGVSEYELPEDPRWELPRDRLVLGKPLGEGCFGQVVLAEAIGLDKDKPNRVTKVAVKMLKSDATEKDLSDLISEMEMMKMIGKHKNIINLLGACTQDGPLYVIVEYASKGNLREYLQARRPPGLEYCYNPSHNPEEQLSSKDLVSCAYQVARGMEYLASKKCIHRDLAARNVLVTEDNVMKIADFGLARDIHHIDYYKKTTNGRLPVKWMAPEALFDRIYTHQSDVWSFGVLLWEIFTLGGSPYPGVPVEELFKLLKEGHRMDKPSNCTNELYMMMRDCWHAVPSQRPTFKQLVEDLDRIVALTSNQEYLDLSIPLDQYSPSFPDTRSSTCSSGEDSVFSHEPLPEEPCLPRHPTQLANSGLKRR

| SMILES | IC50 ([1]; FIG. 1A, read-out: IC50, inhibition of FRAP binding to bFGF immobilized on heparin matrix (converted)) | IC50 ([1]; IC50, inhibition of binding of soluble FGFR-1 to bFGF immobilized on heparin, text of detailed description) | IC50 ([1]; binding of FGF to FGFR, Methods section (ii), read-out: Screen AP assay (IC50)) | Inhibition of tumor formation in nude mice, in words [2] | Inhibition of primary tumor growth in LLC model, in words [3] | Relative potency in FGF-9/FGFR-3 soluble receptor assay, in words (FGFR-3) | Activity in vitro relative to P1 (fold) (FGF receptor) |
| --- | --- | --- | --- | --- | --- | --- | --- |
| C[n+]1ccc(-c2c3nc(c(-c4cc[n+](C)cc4)c4ccc([nH]4)c(-c4cc[n+](C)cc4)c4nc(c(-c5cc[n+](C)cc5)c5ccc2[nH]5)C=C4)C=C3)cc1 [Compound P1, 5,10,15,20-Tetrakis(N-methyl-4-pyridylium)-21H,23H-porphine tetra-p-tosylate] | 133 nM | 90000 nM | 75 nM | clear inhibition of tumor formation | marked inhibition in primary tumor growth | – | – |
| C[n+]1ccc(-c2c3nc(c(-c4cc[n+](C)cc4)c4ccc([nH]4)c(-c4c(F)c(F)c(F)c(F)c4F)c4nc(c(-c5cc[n+](C)cc5)c5ccc2[nH]5)C=C4)C=C3)cc1.[I-].[I-].[I-] [Compound P16, 5-Pentafluorophenyl-10,15,20-tris(N-methyl-4-pyridylium)-21H,23H-porphine triiodide] | – | – | – | – | – | more potent | about 50 fold |
